Reference: ChEMBL document CHEMBL3745637, “New hybrid molecules with anticonvulsant and antinociceptive activity derived from 3-methyl- or 3,3-dimethyl-1-[1-oxo-1-(4-phenylpiperazin-1-yl)propan-2-yl]pyrrolidine-2,5-diones” (Bioorg Med Chem, 2016)
Activity calls are given as the source filed them. The rule behind the calls is not given here.

How the values were obtained:
Mus musculus [1] = experiment: Anticonvulsant activity in Swiss mouse assessed as protection against maximal electroshock-induced seizures at 300 mg/kg, ip pretreated for 0.25 hrs; assay type: functional, organism-based
Mus musculus [2] = experiment: Toxicity in Swiss mouse assessed as death at 300 mg/kg, ip measured after 0.25 hrs; assay type: organism-based; settings: in vivo
Mus musculus [3] = experiment: Anticonvulsant activity in Swiss mouse assessed as prolong latency to first seizure episode at 250 mg/kg pretreated for 0.5 hrs measured after 30 mins by subcutaneous pentylenetetrazole seizure test; assay type: functional, organism-based
Rattus norvegicus = species on record: Rattus norvegicus; experiment: Displacement of [3H]nitrendipine from calcium channel L-Type dihydropyridine site in rat cerebral cortex at 100 uM after 120 mins by scintillation counting method; assay type: tissue-based
[4] = Protective index, ratio of TD50 for neurotoxicity in ip dosed Swiss mouse to ED50 for anticonvulsant activity in ip dosed MES Swiss mouse model at 0.25 hrs; assay type: toxicity, organism-based; settings: in vivo, read-out: Ratio TD50/ED50
[5] = Protective index, ratio of TD50 for neurotoxicity in ip dosed Swiss mouse to ED50 for anticonvulsant activity in ip dosed Swiss mouse 6 Hz psychomotor seizure model at 0.25 hrs; assay type: toxicity, organism-based; settings: in vivo, read-out: Ratio TD50/ED50
[6] = Neurotoxicity in ip dosed Swiss mouse seizure model assessed as motor impairment pretreated for 0.25 hrs measured within 60 s by chimney test; assay type: toxicity, organism-based; settings: in vivo
Mus musculus [7] = experiment: Antinociceptive activity in ip dosed Swiss mouse assessed as reduction of formalin-induced licking at MES ED50 pretreated for 0.25 hrs measured during 20 to 25 mins; assay type: functional; design: scale not given: the % may be the effect or the level left
Mus musculus [8] = experiment: Antinociceptive activity in ip dosed Swiss mouse assessed as reduction of formalin-induced licking at MES ED50 pretreated for 0.25 hrs measured during 15 to 20 mins; assay type: functional; design: scale not given: the % may be the effect or the level left
Mus musculus [9] = experiment: Antinociceptive activity in ip dosed Swiss mouse assessed as reduction of formalin-induced licking at MES ED50 pretreated for 0.25 hrs measured during 1 to 5 mins; assay type: functional; design: scale not given: the % may be the effect or the level left
Mus musculus [10] = experiment: Anticonvulsant activity in Swiss mouse assessed as protection against maximal electroshock-induced seizures at 300 mg/kg, ip pretreated for 0.5 hrs; assay type: functional, organism-based
Mus musculus [11] = experiment: Anticonvulsant activity in Swiss mouse assessed as protection against maximal electroshock-induced seizures at 300 mg/kg, ip pretreated for 1 hr; assay type: functional, organism-based
Mus musculus [12] = experiment: Anticonvulsant activity in Swiss mouse assessed as protection against maximal electroshock-induced seizures at 300 mg/kg, ip pretreated for 2 hrs; assay type: functional, organism-based
Mus musculus [13] = experiment: Anticonvulsant activity in Swiss mouse assessed as protection against maximal electroshock-induced seizures at 100 mg/kg, ip pretreated for 0.25 hrs; assay type: functional, organism-based
Mus musculus [14] = experiment: Anticonvulsant activity in Swiss mouse assessed as protection against maximal electroshock-induced seizures at 100 mg/kg, ip pretreated for 2 hrs; assay type: functional, organism-based
Mus musculus [15] = experiment: Anticonvulsant activity in Swiss mouse assessed as reduction in clonic seizures at 100 mg/kg, ip pretreated for 0.25 hrs measured after 30 mins by subcutaneous pentylenetetrazole seizure test; assay type: functional, organism-based
Mus musculus [16] = experiment: Anticonvulsant activity in Swiss mouse assessed as reduction in clonic seizures at 100 mg/kg, ip pretreated for 2 hrs measured after 30 mins by subcutaneous pentylenetetrazole seizure test; assay type: functional, organism-based
Mus musculus [17] = experiment: Anticonvulsant activity against ip dosed Swiss mouse seizure model assessed as protection at 0.25 hrs by 6 Hz psychomotor seizure test; assay type: functional
Mus musculus [18] = experiment: Anticonvulsant activity in ip dosed Swiss mouse assessed as protection against maximal electroshock-induced seizures at 0.25 hrs; assay type: functional
Mus musculus [19] = experiment: Antinociceptive activity in ip dosed Swiss mouse assessed as reduction of formalin-induced licking at MES ED50 pretreated for 0.25 hrs measured during 25 to 30 mins; assay type: functional; design: scale not given: the % may be the effect or the level left
Mus musculus [20] = experiment: Antinociceptive activity in ip dosed Swiss mouse assessed as reduction of formalin-induced licking at MES ED50 pretreated for 0.25 hrs measured during 15 to 30 mins; assay type: functional, organism-based
[21] = Protective index, ratio of TD50 for neurotoxicity in ip dosed Swiss mouse to ED50 for anticonvulsant activity in ip dosed scPTZ Swiss mouse model at 0.25 hrs; assay type: toxicity, organism-based; settings: in vivo, read-out: Ratio TD50/ED50
Mus musculus [22] = experiment: Anticonvulsant activity in Swiss mouse assessed as prolong latency to first seizure episode at 120 mg/kg pretreated for 0.25 hrs measured after 30 mins by subcutaneous pentylenetetrazole seizure test; assay type: functional, organism-based
Mus musculus [23] = experiment: Anticonvulsant activity in ip dosed Swiss mouse assessed as protection against maximal electroshock-induced seizures at 1 hr; assay type: functional
Mus musculus [24] = experiment: Anticonvulsant activity in ip dosed Swiss mouse assessed as reduction in clonic seizures at 1 hr by subcutaneous pentylenetetrazole seizure test; assay type: functional
[25] = Neurotoxicity in ip dosed Swiss mouse seizure model assessed as motor impairment pretreated for 1 hr measured within 60 s by chimney test; assay type: toxicity, organism-based; settings: in vivo
[26] = Protective index, ratio of TD50 for neurotoxicity in ip dosed Swiss mouse to ED50 for anticonvulsant activity in ip dosed Swiss mouse 6 Hz psychomotor seizure model at 1 hr; assay type: toxicity, organism-based; settings: in vivo, read-out: Ratio TD50/ED50
Mus musculus [27] = experiment: Anticonvulsant activity against Swiss mouse seizure model assessed as protection at 100 mg/kg, ip pretreated for 0.25 hrs by 6 Hz psychomotor seizure test; assay type: functional, organism-based
Mus musculus [28] = experiment: Anticonvulsant activity in ip dosed Swiss mouse assessed as reduction in clonic seizures at 0.5 hrs by subcutaneous pentylenetetrazole seizure test; assay type: functional
Mus musculus [29] = experiment: Anticonvulsant activity in ip dosed Swiss mouse assessed as protection against maximal electroshock-induced seizures at 0.5 hrs; assay type: functional
[30] = Protective index, ratio of TD50 for neurotoxicity in ip dosed Swiss mouse to ED50 for anticonvulsant activity in ip dosed Swiss mouse 6 Hz psychomotor seizure model at 0.5 hrs; assay type: toxicity, organism-based; settings: in vivo, read-out: Ratio TD50/ED50
Mus musculus [31] = experiment: Anticonvulsant activity in Swiss mouse assessed as reduction in clonic seizures at 100 mg/kg, ip pretreated for 0.5 hrs measured after 30 mins by subcutaneous pentylenetetrazole seizure test; assay type: functional, organism-based
Mus musculus [32] = experiment: Anticonvulsant activity in Swiss mouse assessed as reduction in clonic seizures at 100 mg/kg, ip pretreated for 1 hr measured after 30 mins by subcutaneous pentylenetetrazole seizure test; assay type: functional, organism-based
Mus musculus [33] = experiment: Anticonvulsant activity against Swiss mouse seizure model assessed as protection at 100 mg/kg, ip pretreated for 0.5 hrs by 6 Hz psychomotor seizure test; assay type: functional, organism-based
Mus musculus [34] = experiment: Anticonvulsant activity in ip dosed Swiss mouse assessed as prolong latency to first seizure episode pretreated for 0.25 hrs measured after 30 mins by subcutaneous pentylenetetrazole seizure test; assay type: functional, organism-based
Mus musculus [35] = experiment: Anticonvulsant activity in ip dosed Swiss mouse assessed as reduction in clonic seizures at 0.25 hrs by subcutaneous pentylenetetrazole seizure test; assay type: functional
Mus musculus [36] = experiment: Anticonvulsant activity against ip dosed Swiss mouse seizure model assessed as protection at 0.5 hrs by 6 Hz psychomotor seizure test; assay type: functional
[37] = Neurotoxicity in ip dosed Swiss mouse seizure model assessed as motor impairment pretreated for 0.5 hrs measured within 60 s by chimney test; assay type: toxicity, organism-based; settings: in vivo
[38] = Protective index, ratio of TD50 for neurotoxicity in ip dosed Swiss mouse to ED50 for anticonvulsant activity in ip dosed MES Swiss mouse model at 0.5 hrs; assay type: toxicity, organism-based; settings: in vivo, read-out: Ratio TD50/ED50
[39] = Protective index, ratio of TD50 for neurotoxicity in ip dosed Swiss mouse to ED50 for anticonvulsant activity in ip dosed scPTZ Swiss mouse model at 0.5 hrs; assay type: toxicity, organism-based; settings: in vivo, read-out: Ratio TD50/ED50

SMILES: CC1CC(=O)N(C(C)C(=O)N2CCN(c3ccc(C(F)(F)F)cc3)CC2)C1=O (stereo unspecified)
- Activity (Mus musculus [1]): inactive
- Activity (Mus musculus [2]): Toxic

SMILES: CCCC(CCC)C(=O)O
- Activity (Mus musculus [3]): Active

SMILES: CC1(C)O[C@@H]2[C@@H](CO[C@@]3(COS(N)(=O)=O)OC(C)(C)O[C@@H]23)O1
- inhibition (Rattus norvegicus): 7.9%

SMILES: CC(C(=O)N1CCN(c2cccc(C(F)(F)F)c2)CC1)N1C(=O)CC(C)(C)C1=O (stereo unspecified)
- selectivity ratio at 0.25 h [4]: 3.73
- selectivity ratio at 0.25 h [5]: 14.7
- TD50 at 0.25 h [6]: 425 mg/kg
- Activity (Mus musculus [7]): 93%
- Activity (Mus musculus [8]): 96%
- Activity (Mus musculus [9]): 56%
- Activity (Mus musculus [1]): Active
- Activity (Mus musculus [10]): Active
- Activity (Mus musculus [11]): Active
- Activity (Mus musculus [12]): Active
- Activity (Mus musculus [13]): Active
- Activity (Mus musculus [14]): inactive
- Activity (Mus musculus [15]): inactive
- Activity (Mus musculus [16]): inactive
- ED50 (Mus musculus [17]): 29 mg/kg
- ED50 (Mus musculus [18]): 114 mg/kg
- Activity (Mus musculus [19]): 98%
- Activity (Mus musculus [20]): Active

SMILES: CCC1(C)CC(=O)NC1=O (stereo unspecified) [ETHOSUXIMIDE]
- selectivity ratio at 0.25 h [21]: 4.89
- Activity (Mus musculus [22]): Active
- ED50 (Mus musculus [17]): > 200 mg/kg
- ED50 (Mus musculus [18]): > 500 mg/kg

SMILES: CC[C@@H](C(N)=O)N1CCCC1=O [LEVETIRACETAM]
- ED50 (Mus musculus [23]): > 500 mg/kg
- ED50 (Mus musculus [24]): > 500 mg/kg
- TD50 at 1 h [25]: > 500 mg/kg
- selectivity ratio at 1 h [26]: > 33.8

SMILES: CCC(C(=O)N1CCN(c2cccc(C(F)(F)F)c2)CC1)N1C(=O)CC(C)C1=O (stereo unspecified)
- Activity (Mus musculus [27]): Active
- ED50 (Mus musculus [28]): > 130 mg/kg
- selectivity ratio at 0.25 h [4]: 2.19
- selectivity ratio at 0.25 h [21]: 1.51
- selectivity ratio at 0.25 h [5]: 5.42
- ED50 (Mus musculus [29]): 75.7 mg/kg
- TD50 at 0.25 h [6]: 164 mg/kg
- Activity (Mus musculus [7]): 57%
- Activity (Mus musculus [8]): 94%
- Activity (Mus musculus [9]): inactive
- selectivity ratio at 0.5 h [30]: 4.12
- Activity (Mus musculus [1]): Active
- Activity (Mus musculus [31]): inactive
- Activity (Mus musculus [32]): inactive
- Activity (Mus musculus [16]): inactive
- Activity (Mus musculus [33]): Active
- Activity (Mus musculus [34]): Dose-dependent effect
- ED50 (Mus musculus [17]): 30.3 mg/kg
- ED50 (Mus musculus [18]): 75.1 mg/kg
- ED50 (Mus musculus [35]): 108 mg/kg
- ED50 (Mus musculus [36]): 41.2 mg/kg
- TD50 at 0.5 h [37]: 170 mg/kg
- selectivity ratio at 0.5 h [38]: 2.24

SMILES: CC(C(=O)N1CCN(c2ccc(C(F)(F)F)cc2)CC1)N1C(=O)CC(C)(C)C1=O (stereo unspecified)
- Activity (Mus musculus [1]): inactive
- Activity (Mus musculus [2]): Toxic

SMILES: CC1CC(=O)N(C(C)C(=O)N2CCN(c3cccc(Cl)c3)CC2)C1=O (stereo unspecified)
- Activity (Mus musculus [27]): Active
- ED50 (Mus musculus [28]): 121 mg/kg
- selectivity ratio at 0.25 h [4]: 2.91
- selectivity ratio at 0.25 h [21]: 2.3
- selectivity ratio at 0.25 h [5]: 19.2
- ED50 (Mus musculus [29]): 98.5 mg/kg
- TD50 at 0.25 h [6]: 261 mg/kg
- Activity (Mus musculus [7]): 88%
- Activity (Mus musculus [8]): 74%
- Activity (Mus musculus [9]): 45%
- selectivity ratio at 0.5 h [30]: 11.1
- Activity (Mus musculus [1]): Active
- Activity (Mus musculus [10]): Active
- Activity (Mus musculus [13]): Active
- Activity (Mus musculus [14]): inactive
- Activity (Mus musculus [32]): inactive
- Activity (Mus musculus [16]): inactive
- Activity (Mus musculus [33]): Active
- Activity (Mus musculus [34]): Dose-dependent effect
- ED50 (Mus musculus [17]): 13.6 mg/kg
- ED50 (Mus musculus [18]): 89.7 mg/kg
- ED50 (Mus musculus [35]): 114 mg/kg
- ED50 (Mus musculus [36]): 24.4 mg/kg
- TD50 at 0.5 h [37]: 270 mg/kg
- selectivity ratio at 0.5 h [38]: 2.74
- selectivity ratio at 0.5 h [39]: 2.23
